Data as given in patent publication US10561638B2, “Methods for treating dependence” (Biotie Therapies, Inc., priority 2007, dated 2020).
“Also recorded” adds a separate entry of the source.

Legend:
[1] = Phase I single- and multiple-dose studies in healthy men; format: in vivo, human
[2] = biological target: 5-HT2C serotonin receptors (Homo sapiens, UniProt P28335); test: Radioligand binding assay
Experimental: (§1) The activity of nepicastat at twelve selected enzymes and receptors was determined using established assays. Binding data were analyzed by iterative curve-fitting to a four parameter logistic equation. Ki values were calculated from IC50 values using the Cheng-Prusoff equation. Enzyme inhibitory activity was expressed as IC50 (concentration required to produce 50% inhibition of enzyme activity).
(§2) The activity of nepicastat at eleven different enzymes was determined using established assays. The affinity of nepicastat for thirteen selected receptors was determined by radioligand binding assays using standard filtration techniques and membrane preparations. Binding data were analyzed by iterative curve fitting to a four parameter logistic equation. Ki values were calculated using the Cheng-Prusoff equation.
(§3) The binding affinity for nepicastat was screened at selected receptors. […] Thus nepicastat and its primary metabolite were not potent inhibitors for the receptors listed above.

D1 dopamine receptors = D1 dopamine receptors (Homo sapiens, UniProt P21728); test: Radioligand binding assay
D1 dopamine receptors, sequence (P21728 whole entry): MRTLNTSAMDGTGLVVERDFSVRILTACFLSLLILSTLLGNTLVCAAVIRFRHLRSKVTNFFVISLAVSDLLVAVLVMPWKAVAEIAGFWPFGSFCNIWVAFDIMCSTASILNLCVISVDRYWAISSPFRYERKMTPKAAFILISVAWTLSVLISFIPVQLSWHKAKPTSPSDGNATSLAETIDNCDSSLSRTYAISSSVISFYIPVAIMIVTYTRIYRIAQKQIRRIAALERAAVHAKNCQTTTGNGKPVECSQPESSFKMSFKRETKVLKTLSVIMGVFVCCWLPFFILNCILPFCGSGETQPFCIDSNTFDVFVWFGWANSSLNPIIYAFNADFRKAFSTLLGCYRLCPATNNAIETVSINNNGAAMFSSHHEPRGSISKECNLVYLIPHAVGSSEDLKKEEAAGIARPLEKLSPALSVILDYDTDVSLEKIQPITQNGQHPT
Experimental: as §1, §2, §3

D2 dopamine receptors = D2 dopamine receptors (Homo sapiens, UniProt P14416); test: Radioligand binding assay
D2 dopamine receptors, sequence (P14416 whole entry): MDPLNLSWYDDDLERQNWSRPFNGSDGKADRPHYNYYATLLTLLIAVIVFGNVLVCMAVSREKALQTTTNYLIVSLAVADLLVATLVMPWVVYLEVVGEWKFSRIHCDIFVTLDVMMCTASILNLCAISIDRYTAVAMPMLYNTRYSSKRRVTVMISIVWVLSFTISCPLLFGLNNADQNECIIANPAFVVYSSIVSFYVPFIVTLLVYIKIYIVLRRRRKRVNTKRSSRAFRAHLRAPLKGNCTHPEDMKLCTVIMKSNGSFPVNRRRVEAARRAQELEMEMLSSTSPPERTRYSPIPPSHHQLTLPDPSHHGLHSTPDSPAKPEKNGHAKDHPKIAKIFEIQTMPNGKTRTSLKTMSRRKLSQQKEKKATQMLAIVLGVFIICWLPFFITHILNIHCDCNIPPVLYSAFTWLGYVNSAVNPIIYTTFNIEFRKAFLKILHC
Experimental: as §1, §2, §3

M1 muscarinic receptors = M1 muscarinic receptors (Homo sapiens, UniProt P11229); test: Radioligand binding assay
M1 muscarinic receptors, sequence (P11229 whole entry): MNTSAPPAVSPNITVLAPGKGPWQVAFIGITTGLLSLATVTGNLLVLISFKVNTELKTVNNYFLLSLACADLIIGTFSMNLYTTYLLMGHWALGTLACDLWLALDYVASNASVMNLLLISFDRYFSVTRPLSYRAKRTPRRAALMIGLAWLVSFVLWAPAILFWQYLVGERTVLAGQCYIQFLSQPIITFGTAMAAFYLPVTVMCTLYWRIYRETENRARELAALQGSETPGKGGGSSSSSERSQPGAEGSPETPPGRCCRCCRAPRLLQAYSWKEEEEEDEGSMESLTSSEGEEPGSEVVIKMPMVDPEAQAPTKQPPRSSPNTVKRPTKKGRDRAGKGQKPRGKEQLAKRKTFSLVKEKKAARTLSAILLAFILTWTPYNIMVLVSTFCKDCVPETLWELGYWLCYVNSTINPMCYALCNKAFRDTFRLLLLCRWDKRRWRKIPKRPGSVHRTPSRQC
Experimental: as §1, §2, §3

[3] = tested on: mesenteric artery catecholamines and sympathetically-evoked responses; test: Anesthetized beagle dogs, 30 mg/kg intraduodenally; format: in vivo
normotensive Wistar rats = test: 7 day radio-telemetry study in normotensive Wistar rats
Experimental: Male Crl:COBS(WI)BR rats of 15 weeks old were used.
Both nepicastat and hydralazine were prepared in water with traces of Tween 80. All doses were given orally to the rat in 10 ml/kg and were expressed as free base equivalents.
All values were expressed as means±SEM. Statistical significance was defined as a p level of less than 0.05.
Body weights were recorded daily.

anesthetized beagle dogs = test: Sympathetically-evoked responses in dogs after 4.5 days dosing; format: in vivo; conditions: 10 mg/kg/d for 4.5 days
mice = test: Clinical observations and behavioral tests in mice, single oral dose; format: in vivo
Experimental: A single oral dose of vehicle or nepicastat formulation was administered by gavage to each mouse using a rodent intubator. The oral route was selected because it is a proposed clinical route of administration. Dose volumes were calculated on the basis of individual body weights recorded before dosing (body weight data are not tabulated in this report). Food and water were withheld from the mice 2.5 to 3.5 hours before dosing, instead of 1.5 hours as specified in the protocol.
Clinical observations were recorded before dosing. Beginning 60 minutes after dosing, mice in each treatment group were evaluated in groups of up to 3 over an interval of approximately 10 minutes each for clinical observations and protocol-specified behavioral tests. One mouse in the 30-mg/kg group and 1 mouse in the 100-mg/kg group died after dosing and they were removed from the study. Surviving mice were euthanatized and removed from the study at the end of the observation/testing period.
[…] Clinical observations and behavioral tests were initiated 60 minutes after administration of the test formulation. At the end of the observation period, all surviving mice were euthanatized and removed from the study.

[4] = Pharmacokinetics and brain levels in rats; format: in vivo
Experimental: Male rats (Crl: CD BR Vaf+) weighing 180-220 g were fasted overnight before dosing and until 4 hr after dosing. Doses were formulated in water containing 2% 1-hydroxypropyl methylcellulose (50 centipoises viscosity), 1% benzyl alcohol, and 0.6% Tween 80 (all obtained from Sigma Chemical Company). Concentration of drug in the dose solutions was 5, 15, and 50 mg/ml for the 10, 30, and 100 mg/kg doses, respectively, and was verified by liquid chromatography (LC). The 5 mg/ml dose was a clear solution and the higher concentrations were a translucent suspension. Dose volumes were 2.0 ml/kg. At various times after dosing, samples of blood were obtained by cardiac puncture with heparinized syringes, and plasma was prepared by centrifugation. Brains of rats were surgically excised, and all samples were frozen at −20° C. until analysis.
Aliquots of plasma (0.05 or 0.5 ml) were mixed with internal standard (50 μl of methanol containing 5 μg/ml a monofluoro analog of nepicastat, and 5 mg/ml dithiothreitol). […] Concentrations of analytes were determined from a standard curve generated from the analysis of plasma from untreated rats fortified with known concentrations of analyte. Plasma concentration data are expressed as μg (free base) per ml. […]
Following addition of 100 μl of methanol to the aqueous phase (to disperse any emulsion), 100 μl aliquots were assayed by LC as described for plasma. Level in brain are expressed as μg (free base) per g of brain tissue.
Pharmacokinetic parameters were calculated from mean plasma concentrations. Plasma half-life (T1/2) was calculated as 0.693/β, where β is the elimination rate constant determined by linear regression of the log plasma concentration vs. time data within the terminal linear portion of the data. Areas under the plasma concentration vs. time curve (AUC) from zero to the time of the last quantifiable plasma concentrations were calculated by the trapezoidal rule. AUC from zero to infinity (AUCtotal 1 was calculated as: AUCtotal=AUC(0−Clast)+Clast/β where Clast is the last quantifiable plasma concentration.

[5] = tested on: tissue norepinephrine and dopamine levels; test: Tissue catecholamines in SHRs after single dose (dose response, time course); format: in vivo, spontaneously hypertensive rats; conditions: 6.2 mg/kg oral or i.v., 0.5 to 4 hours
[6] = 30, 100, 300 mg/kg single oral dose

5-HT2C serotonin receptors, sequence (P28335 33-458): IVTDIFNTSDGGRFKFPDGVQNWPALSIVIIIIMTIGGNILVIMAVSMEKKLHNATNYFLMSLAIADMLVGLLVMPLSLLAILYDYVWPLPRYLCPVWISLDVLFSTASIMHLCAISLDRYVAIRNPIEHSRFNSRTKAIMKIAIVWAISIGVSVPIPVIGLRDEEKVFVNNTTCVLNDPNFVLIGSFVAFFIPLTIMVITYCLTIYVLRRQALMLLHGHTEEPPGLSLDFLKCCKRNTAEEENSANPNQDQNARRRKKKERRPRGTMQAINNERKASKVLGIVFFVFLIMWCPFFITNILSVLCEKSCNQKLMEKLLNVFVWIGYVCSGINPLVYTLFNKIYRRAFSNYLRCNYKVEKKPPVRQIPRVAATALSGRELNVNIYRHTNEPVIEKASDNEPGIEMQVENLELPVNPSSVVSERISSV

Cl.NCc1c[nH]c(=S)n1[C@H]1CCc2c(F)cc(F)cc2C1 [nepicastat, (S)-5-Aminomethyl-1-(5,7-difluoro-1,2,3,4-tetrahydronaphth-2-yl)-2,3-dihydro-2-thioxo-1H-imidazole hydrochloride]
subjects who developed a rash ([1]; 200 mg for 8 days or longer): Five of the 6 subjects
tolerability, multiple-dose Phase I study ([1]; 5 and 40 mg, healthy men): generally well tolerated
effect on mood, sleep, cognition ([1]; 5 or 40 mg): no significant impairment of mood, sleep, or cognition
tolerability, single-dose Phase I studies ([1]; 5 to 800 mg, healthy men): generally well tolerated
cardiac adverse event in one subject ([1]; after 6 days of dosing with 200 mg): atrial arrhythmias and intermittent right bundle branch block
Ki [2]: > 10 µM
Ki (D1 dopamine receptors): > 10 µM
Ki (D2 dopamine receptors): > 10 µM
Ki (M1 muscarinic receptors): > 10 µM
responses to renal nerve stimulation and carotid artery occlusion ([3]; 30 mg/kg intraduodenally, up to 5 hours): did not significantly inhibit
mesenteric artery catecholamines ([3]; 5 hours after 30 mg/kg intraduodenally): significant decrease in norepinephrine levels and an increase in the dopamine/norepinephrine ratio
peak decrease in blood pressure (normotensive Wistar rats; 30 mg/kg/d, day 2): −10 mmHg
peak antihypertensive response on day 1 (normotensive Wistar rats; 100 mg/kg, 22 hr after dosing): −11 mmHg
blood pressure and heart rate increases in response to carotid artery occlusion (anesthetized beagle dogs): no statistically significant decrease
blood pressure response to i.v. tyramine challenge (anesthetized beagle dogs): only slight and non-significant inhibition
heart rate response to i.v. tyramine challenge (anesthetized beagle dogs): significantly reduced the increase in heart rate
clinical or gross behavior changes (mice; [6]): No treatment-related clinical or gross behavior changes
rectal body temperature vs vehicle-control (mice; [6]): Lower body temperatures
gross motor behavior (mice; acute 1.0-30 mg/kg p.o.): no significant effects on gross motor behavior
deaths after dosing (mice; one mouse each at 30 and 100 mg/kg): the deaths were considered incidental
plasma AUCtotal, higher in female than in male rats ([4]; 30 mg/kg oral): 77%
brain vs plasma concentrations ([4]; male rats, 10 mg/kg oral, from 2 hr onward, hydrochloride, 10 mg/kg): concentrations of nepicastat in brain exceeded those in plasma; also recorded: levels of nepicastat in brain were greater than in plasma
relationship between AUCtotal and dose ([4]; male rats, 10-100 mg/kg): linear
mesenteric artery catecholamines [5]: significantly decreased norepinephrine and increased dopamine and the dopamine/norepinephrine ratio
